According to patent US11896591B2, “Compositions and methods for preparing and using mitochondrial uncouplers” (UNIVERSITY OF VIRGINIA PATENT FOUNDATION, priority 2017, dated 2024):

Tested on: whole cells
Assay: Oxygen consumption rate (OCR) in whole cells, Seahorse XF-24 Flux Analyzer
Assay type: cell-based
Details: binned EC50 values; increase in oxygen consumption rate in whole cells
Description: Biological activities of the compounds synthesized is determined by determining increase in oxygen consumption rate (OCR).
OCR is measured using a Seahorse XF-24 Flux Analyzer (Seahorse Biosciences, North Billerica, MA). NMuLi, C2C12, and L6 cells are seeded in a Seahorse 24-well tissue culture plate at a density of 3.5×10^4 cells/well, isolated cardiomyocytes at a density of 4×10^4 cells/well, and human primary fibroblasts at a density of 1.1×10^4 cells/well. The cells are then allowed to adhere for 24 h. […] Compounds are injected during the assay and OCR is measured using 2 min measurement periods.
2-3 wells are used per condition and averaged over three plates (n=6-9). Statistical significance is determined by two-way ANOVA with Bonferroni's posttest.

Row | EC50 [µM] | Compound
1 | 5 to 20 | Fc1cc(C(F)(F)F)ccc1Nc1nccnc1Nc1ccc(C(F)(F)F)cc1F [Compound 16h, N^2,N^3-bis(2-fluoro-4-(trifluoromethyl)phenyl)pyrazine-2,3-diamine]
2 | < 5 | c1ccc(Nc2nc3nonc3nc2Nc2ccccc2)cc1 [Compound 3ee, N^5,N^6-diphenyl-[1,2,5]oxadiazolo[3,4-b]pyrazine-5,6-diamine]
3 | 5 to 20 | Cn1c(C(F)(F)F)nc2nc(Nc3cc(C(F)(F)F)ccc3F)c(Nc3cc(C(F)(F)F)ccc3F)nc21 [Compound 13b, N^5,N^6-bis(2-fluoro-5-(trifluoromethyl)phenyl)-1-methyl-2-(trifluoromethyl)-imidazo[4,5-b]pyrazine-5,6-diamine]
4 | < 5 | FC(F)(F)c1ccccc1Nc1nc2nonc2nc1Nc1ccccc1C(F)(F)F [Compound 3q, N^5,N^6-bis(2-(trifluoromethyl)phenyl)-[1,2,5]oxadiazolo[3,4-b]pyrazine-5,6-diamine]
5 | > 20 | Fc1ccccc1Nc1nc2nonc2nc1Nc1ccccn1 [Compound 4b, N^5-(2-fluorophenyl)-N^6-(pyridin-2-yl)-[1,2,5]oxadiazolo[3,4-b]pyrazine-5,6-diamine]
6 | < 5 | Cc1cccc(Nc2nc3nonc3nc2Nc2cccc(C)c2)c1 [Compound 3b, N^5,N^6-di-m-tolyl-[1,2,5]oxadiazolo[3,4-b]pyrazine-5,6-diamine]
7 | > 20 | Cn1c(C(F)(F)F)nc2nc(Nc3ccccc3F)c(Nc3ccccc3)nc21 [Compound 13s, 1-Methyl-N^5-(2-fluorophenyl)-N^6-phenyl-2-(trifluoromethyl)-imidazo[4,5-b]pyrazine-5,6-diamine]
8 | < 5 | Fc1c(Nc2nc3nonc3nc2Nc2cccc(C(F)(F)F)c2F)cccc1C(F)(F)F [Compound 3aa, N^5,N^6-bis(2-fluoro-3-(trifluoromethyl)phenyl)-[1,2,5]oxadiazolo[3,4-b]pyrazine-5,6-diamine]
9 | < 5 | Fc1cccc(Nc2nc3nonc3nc2Nc2cccc(F)c2)c1 [Compound 3n, N^5,N^6-bis(3-fluorophenyl)-[1,2,5]oxadiazolo[3,4-b]pyrazine-5,6-diamine]
10 | 5 to 20 | Fc1cc(Nc2nc3nc(C(F)(F)F)[nH]c3nc2Nc2ccc(C(F)(F)F)c(F)c2)ccc1C(F)(F)F [Compound 12h, N^5,N^6-bis(3-fluoro-4-(trifluoromethyl)phenyl)-2-(trifluoromethyl)-1H-imidazo[4,5-b]pyrazine-5,6-diamine]
11 | > 20 | Cn1c(C(F)(F)F)nc2nc(Nc3ccccc3F)c(Nc3cccc(C(F)(F)F)c3F)nc21 [Compound 13t, 1-Methyl-N^5-(2-fluorophenyl)-N^6-(2-fluoro-3-(trifluoromethyl)phenyl)-2-(trifluoromethyl)-imidazo[4,5-b]pyrazine-5,6-diamine]
12 | 5 to 20 | Cc1ccc(Nc2nc3nonc3nc2Nc2ccc(C)cc2)cc1 [Compound 3c, N^5,N^6-di-p-tolyl-[1,2,5]oxadiazolo[3,4-b]pyrazine-5,6-diamine]
13 | < 5 | COc1ccc(Nc2nc3nonc3nc2Nc2ccccc2F)cc1 [Compound 4l, N^5-(2-fluorophenyl)-N^6-(4-methoxyphenyl)-[1,2,5]oxadiazolo[3,4-b]pyrazine-5,6-diamine]
14 | < 5 | Cn1c(C(F)(F)F)nc2nc(Nc3ccc(C(F)(F)F)cc3F)c(Nc3ccc(C(F)(F)F)cc3F)nc21 [Compound 13g, N^5,N^6-bis(2-fluoro-4-(trifluoromethyl)phenyl)-1-methyl-2-(trifluoromethyl)-imidazo[4,5-b]pyrazine-5,6-diamine]
15 | > 20 | Cc1ccc(Nc2nc3nc(C(F)(F)F)[nH]c3nc2Nc2ccc(C)cc2)cc1 [Compound 12k, N^5,N^6-di-p-tolyl-2-(trifluoromethyl)-1H-imidazo[4,5-b]pyrazine-5,6-diamine]
16 | 5 to 20 | CCOc1cccc(Nc2nc3nonc3nc2Nc2cccc(OCC)c2)c1 [Compound 3h, N^5,N^6-bis(3-ethoxyphenyl)-[1,2,5]oxadiazolo[3,4-b]pyrazine-5,6-diamine]
17 | < 5 | Fc1ccc(Nc2nc3nonc3nc2Nc2ccccc2F)c(F)c1 [Compound 4f, N^5-(2,4-difluorophenyl)-N^6-(2-fluorophenyl)-[1,2,5]oxadiazolo[3,4-b]pyrazine-5,6-diamine]
18 | 5 to 20 | Fc1ccc(C(F)(F)F)cc1Nc1nc2nc(C(F)(F)F)[nH]c2nc1Nc1cc(C(F)(F)F)ccc1F [Compound 12b, N^5,N^6-bis(2-fluoro-5-(trifluoromethyl)phenyl)-2-(trifluoromethyl)-1H-imidazo[4,5-b]pyrazine-5,6-diamine]

Row | EC50 [µM] | Compound
19 | 5 to 20 | CCCNc1nc2nonc2nc1Nc1ccccc1F [Compound 7c, N^5-(2-fluorophenyl)-N^6-propyl-[1,2,5]oxadiazolo[3,4-b]pyrazine-5,6-diamine]
20 | < 5 | Fc1ccccc1Nc1nc2nonc2nc1Nc1ccc(OC(F)(F)F)cc1 [Compound 4s, N^5-(2-fluorophenyl)-N^6-(4-(trifluoromethoxy)phenyl)-[1,2,5]oxadiazolo[3,4-b]pyrazine-5,6-diamine]
21 | > 20 | Cc1ccc(Nc2nc3c(nc2Nc2ccccc2F)nc(C(F)(F)F)n3C)cc1 [Compound 13u, 1-Methyl-N^5-(2-fluorophenyl)-N^6-(p-tolyl)-2-(trifluoromethyl)-imidazo[4,5-b]pyrazine-5,6-diamine]
22 | > 20 | COc1ccc(Nc2nc3nc(C(F)(F)F)[nH]c3nc2Nc2ccc(OC)cc2)cc1 [Compound 12n, N^5,N^6-bis(4-methoxyphenyl)-2-(trifluoromethyl)-1H-imidazo[4,5-b]pyrazine-5,6-diamine]
23 | 5 to 20 | FC(F)(F)c1cc(Nc2nccnc2Nc2cc(C(F)(F)F)cc(C(F)(F)F)c2)cc(C(F)(F)F)c1 [Compound 16f, N^2,N^3-bis(3,5-bis(trifluoromethyl)phenyl)pyrazine-2,3-diamine]
24 | < 5 | FC(F)(F)Oc1cccc(Nc2nc3nonc3nc2Nc2cccc(OC(F)(F)F)c2)c1 [Compound 3l, N^5,N^6-bis(3-(trifluoromethoxy)phenyl)-[1,2,5]oxadiazolo[3,4-b]pyrazine-5,6-diamine]
25 | 5 to 20 | Cn1c(C(F)(F)F)nc2nc(Nc3ccc(OC(F)(F)F)cc3)c(Nc3ccc(OC(F)(F)F)cc3)nc21 [Compound 13m, 1-Methyl-N^5,N^6-bis(4-(trifluoromethoxy)phenyl)-2-(trifluoromethyl)-imidazo[4,5-b]pyrazine-5,6-diamine]
26 | > 20 | Cn1c(C(F)(F)F)nc2nc(Nc3ccccc3F)c(NC3CCCCC3)nc21 [Compound 13v, 1-Methyl-N^5-(2-fluorophenyl)-N^6-cyclohexyl-2-(trifluoromethyl)-imidazo[4,5-b]pyrazine-5,6-diamine]
27 | < 5 | CCOc1cccc(Nc2nc3nonc3nc2Nc2ccccc2F)c1 [Compound 4n, N^5-(3-ethoxyphenyl)-N^6-(2-fluorophenyl)-[1,2,5]oxadiazolo[3,4-b]pyrazine-5,6-diamine]
28 | < 5 | Cc1cccc(Nc2nc3nonc3nc2Nc2ccccc2F)c1 [Compound 4h, N^5-(2-fluorophenyl)-N^6-(m-tolyl)-[1,2,5]oxadiazolo[3,4-b]pyrazine-5,6-diamine]
29 | > 20 | Cc1ccc(Nc2nc3nc(C(F)(F)F)n(C)c3nc2Nc2ccc(C)cc2)cc1 [Compound 13k, 1-Methyl-N^5,N^6-di-p-tolyl-2-(trifluoromethyl)-imidazo[4,5-b]pyrazine-5,6-diamine]
30 | < 5 | Fc1ccccc1Nc1nc2nonc2nc1Nc1cccc(F)c1F [Compound 4e, N^5-(2,3-difluorophenyl)-N^6-(2-fluorophenyl)-[1,2,5]oxadiazolo[3,4-b]pyrazine-5,6-diamine]
31 | 5 to 20 | Fc1ccccc1Nc1nc2nc(C(F)(F)F)[nH]c2nc1Nc1ccccc1F [Compound 12a, N^5,N^6-bis(2-fluorophenyl)-2-(trifluoromethyl)-1H-imidazo[4,5-b]pyrazine-5,6-diamine]
32 | < 5 | Fc1cc(F)cc(Nc2nc3nonc3nc2Nc2cc(F)cc(F)c2)c1 [Compound 3cc, N^5,N^6-bis(3,5-difluorophenyl)-[1,2,5]oxadiazolo[3,4-b]pyrazine-5,6-diamine]
33 | < 5 | COC(=O)c1ccc(Nc2nc3nonc3nc2Nc2ccccc2F)cc1 [Compound 4y, Methyl 4-((6-((2-fluorophenyl)amino)-[1,2,5]oxadiazolo[3,4-b]pyrazin-5-yl)amino)benzoate]
34 | < 5 | FC(F)(F)c1cccc(Nc2nccnc2Nc2cccc(C(F)(F)F)c2)c1 [Compound 16b, N^2,N^3-bis(3-(trifluoromethyl)phenyl)pyrazine-2,3-diamine]
35 | < 5 | COc1cccc(Nc2nc3nonc3nc2Nc2ccccc2F)c1 [Compound 4k, N^5-(2-fluorophenyl)-N^6-(3-methoxyphenyl)-[1,2,5]oxadiazolo[3,4-b]pyrazine-5,6-diamine]
36 | > 20 | Cc1ccccc1Nc1nc2nonc2nc1Nc1ccccc1C [Compound 3a, N^5,N^6-di-o-tolyl-[1,2,5]oxadiazolo[3,4-b]pyrazine-5,6-diamine]

Row | Compound | EC50 [µM]
37 | Fc1cc(C(F)(F)F)ccc1Nc1nc2nonc2nc1Nc1ccc(C(F)(F)F)cc1F [Compound 3w, N^5,N^6-bis(2-fluoro-4-(trifluoromethyl)phenyl)-[1,2,5]oxadiazolo[3,4-b]pyrazine-5,6-diamine] | < 5
38 | FC(F)(F)c1ccc(Nc2nc3nonc3nc2Nc2ccc(C(F)(F)F)cc2)cc1 [Compound 3s, N^5,N^6-bis(4-(trifluoromethyl)phenyl)-[1,2,5]oxadiazolo[3,4-b]pyrazine-5,6-diamine] | < 5
39 | Fc1cc(Nc2nc3nonc3nc2Nc2ccc(OC(F)(F)F)c(F)c2)ccc1OC(F)(F)F [Compound 3bb, N^5,N^6-bis(3-fluoro-4-(trifluoromethoxy)phenyl)-[1,2,5]oxadiazolo[3,4-b]pyrazine-5,6-diamine] | < 5
